Laboratory results from patent publication US20230265151A1, “GIP/GLP1 CO-AGONIST COMPOUNDS” (priority 2020, published 2023).
Where two headings read alike, the source gives them in different places. *1 amine or outer side, *2 acyl side, *3 side chain or, on linkers, in order; H or OH if unused. Where a SMILES comes first, the peptide text is derived from it. Side-chain parts run from the residue outwards. [ ]: non-standard residue; d: D form. The star is where a group is joined. αMePhe(2-F) = C[C@](N)(Cc1ccccc1F)C(=O)O; γGlu = O=C(O)[C@H](CCC(=O)[*:2])N[*:1]; αMeY = C[C@](N)(Cc1ccc(O)cc1)C(=O)O; 4Pal = N[C@@H](Cc1ccncc1)C(=O)O; αMeL = CC(C)C[C@](C)(N)C(=O)O; Lauroyl = CCCCCCCCCCCC(=O)*; Orn = NCCC[C@H](N)C(=O)O; AEEA = NCCOCCOCC(=O)O; Aib = CC(C)(N)C(=O)O

Legend:
Assay type in all cases: cell-based
hGIPR = biological target: T1, hGIPR (Homo sapiens, UniProt P48546); assay: Functional cAMP formation (HTRF) in HEK-293 clonal cells expressing hGIPR, 0.1% bovine casein, without or with 1.0% human serum albumin; settings: 37° C.; for EC50: geometric mean, read-out: hGIPR EC50, nM (SEM, n); for Emax: percent of maximal response to GIP(1-42)NH2, read-out: hGIPR Emax, % ± SEM
T1 construct: expressed in transfected cells
T1 sequence (P48546 22-466): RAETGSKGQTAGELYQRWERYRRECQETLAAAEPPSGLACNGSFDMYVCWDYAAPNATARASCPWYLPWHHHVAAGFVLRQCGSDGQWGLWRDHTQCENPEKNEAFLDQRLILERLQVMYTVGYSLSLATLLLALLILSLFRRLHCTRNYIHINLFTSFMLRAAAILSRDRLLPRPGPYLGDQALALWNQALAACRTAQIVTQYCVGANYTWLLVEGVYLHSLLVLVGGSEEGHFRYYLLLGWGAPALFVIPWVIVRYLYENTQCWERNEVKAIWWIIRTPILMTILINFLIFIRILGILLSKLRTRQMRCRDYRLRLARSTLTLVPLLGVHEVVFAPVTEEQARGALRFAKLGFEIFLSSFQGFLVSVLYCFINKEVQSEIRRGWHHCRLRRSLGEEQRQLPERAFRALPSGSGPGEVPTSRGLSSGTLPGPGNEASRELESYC
Procedure, shortened: (§1)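 Cells were stimulated with peptide for 30 min at 37° C, then intracellular cAMP was measured by competitive HTRF (665/620 nm ratio) and converted to nM using a cAMP standard curve. Relative EC50 and Emax came from four-parameter logistic fits of percent maximal response against peptide concentration.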

hGCGR = biological target: T2, hGCGR (Homo sapiens, UniProt P47871); assay: Functional cAMP formation (HTRF) in HEK-293 clonal cells expressing hGCGR, 0.1% bovine casein, without or with 1.0% human serum albumin; settings: 37° C., geometric mean, read-out: hGCGR EC50, nM (SEM, n)
T2 construct: expressed in transfected cells
T2 sequence (P47871 26-477): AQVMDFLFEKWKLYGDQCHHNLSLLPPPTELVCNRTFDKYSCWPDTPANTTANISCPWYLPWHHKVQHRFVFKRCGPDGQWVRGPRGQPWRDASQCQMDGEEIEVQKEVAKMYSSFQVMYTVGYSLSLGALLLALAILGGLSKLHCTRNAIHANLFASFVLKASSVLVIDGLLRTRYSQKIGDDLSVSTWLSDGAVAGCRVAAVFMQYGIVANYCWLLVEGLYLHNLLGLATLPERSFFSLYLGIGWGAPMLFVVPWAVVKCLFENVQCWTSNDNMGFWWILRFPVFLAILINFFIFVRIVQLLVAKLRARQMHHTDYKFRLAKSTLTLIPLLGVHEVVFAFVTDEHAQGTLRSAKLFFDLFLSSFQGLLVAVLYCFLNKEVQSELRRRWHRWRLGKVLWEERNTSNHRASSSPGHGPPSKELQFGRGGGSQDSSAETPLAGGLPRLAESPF
Procedure, shortened: as §1

hGLP-1R = hGLP-1R (Homo sapiens, UniProt P43220); assay: Functional cAMP formation (HTRF) in HEK-293 clonal cells expressing hGLP-1R, 0.1% bovine casein, without or with 1.0% human serum albumin; set-up: expressed in transfected cells; settings: 37° C.; for Emax: percent of maximal response to GLP-1(7-36)NH2, read-out: hGLP-1R Emax, % ± SEM; for EC50: geometric mean, read-out: hGLP-1R EC50, nM (SEM, n)
Chain of hGLP-1R (P43220 24-463): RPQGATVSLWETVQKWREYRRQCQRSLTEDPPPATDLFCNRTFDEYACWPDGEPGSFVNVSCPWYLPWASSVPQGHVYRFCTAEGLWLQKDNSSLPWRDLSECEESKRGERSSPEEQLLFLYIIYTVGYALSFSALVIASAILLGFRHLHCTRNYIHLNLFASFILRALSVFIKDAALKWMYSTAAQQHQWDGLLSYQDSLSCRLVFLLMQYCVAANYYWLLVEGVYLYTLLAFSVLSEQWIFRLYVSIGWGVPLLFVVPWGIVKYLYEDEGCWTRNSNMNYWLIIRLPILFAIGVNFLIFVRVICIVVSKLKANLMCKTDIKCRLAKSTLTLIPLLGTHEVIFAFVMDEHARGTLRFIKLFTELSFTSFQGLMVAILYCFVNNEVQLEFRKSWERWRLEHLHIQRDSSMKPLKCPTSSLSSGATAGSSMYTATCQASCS
Procedure, shortened: as §1

[1] = 0.1% bovine casein and 1.0% human serum albumin
[2] = HEK293, 0.1% bovine casein and 1.0% human serum albumin
[3] = cAMP, 0.1% bovine casein (no human serum albumin)
[4] = HEK293, cAMP, 0.1% bovine casein, arithmetic mean

Structure (SMILES)	EC50 (hGIPR; [1])	Emax (hGIPR; [2])	EC50 (hGCGR; [1])	EC50 (hGCGR; [3])	Emax (hGLP-1R; [2])	EC50 (hGIPR; [3])	Emax (hGLP-1R; [4])	EC50 (hGLP-1R; [3])	Emax (hGIPR; [4])	EC50 (hGLP-1R; [1])
CCCCCCCCCCCC(=O)N[C@@H](CCC(=O)NCCOCCOCC(=O)NCCOCCOCC(=O)NCCCC[C@H](NC(=O)[C@H](CCCN)NC(=O)[C@H](CC(=O)O)NC(=O)[C@H](CC(C)C)NC(=O)[C@](C)(CC(C)C)NC(=O)[C@@H](NC(=O)[C@H](CO)NC(=O)[C@H](Cc1ccc(OC)cc1)NC(=O)[C@H](CC(=O)O)NC(=O)[C@H](CO)NC(=O)[C@@H](NC(=O)[C@](C)(Cc1ccccc1F)NC(=O)[C@@H](NC(=O)CNC(=O)[C@H](CCC(=O)O)NC(=O)C(C)(C)NC(=O)[C@@H](N)Cc1ccc(O)cc1)[C@@H](C)O)[C@@H](C)O)[C@@H](C)CC)C(=O)N[C@@H](C)C(=O)N[C@@H](CCC(N)=O)C(=O)NC(C)(C)C(=O)N[C@@H](CCC(=O)O)C(=O)N[C@@H](Cc1ccccc1)C(=O)N[C@H](C(=O)N[C@H](CCC(=O)O)C(=O)N[C@@](C)(Cc1ccc(O)cc1)C(=O)N[C@@H](CC(C)C)C(=O)N[C@H](C(=O)N[C@@H](CCCCNC(=O)COCCOCCNC(=O)COCCOCCNC(=O)CC[C@H](NC(=O)CCCCCCCCCCC)C(=O)O)C(=O)NCC(=O)NCC(=O)N1CCC[C@H]1C(=O)N[C@@H](CO)C(=O)N[C@@H](CO)C(=O)NCC(=O)N[C@@H](C)C(=O)N1CCC[C@H]1C(=O)N1CCC[C@H]1C(=O)N1CCC[C@H]1C(=O)N[C@@H](CO)C(N)=O)[C@@H](C)CC)[C@@H](C)CC)C(=O)O [Example 290]	0.878 nM	93.4%	> 9950 nM	> 9950 nM	109%					
CCCCCCCCCCCC(=O)N[C@@H](CCC(=O)NCCOCCOCC(=O)NCCOCCOCC(=O)NCCCC[C@H](NC(=O)[C@H](CO)NC(=O)[C@@H]1CCCN1C(=O)[C@@H]1CCCN1C(=O)[C@@H]1CCCN1C(=O)[C@H](C)NC(=O)CNC(=O)[C@H](CO)NC(=O)[C@H](CO)NC(=O)[C@@H]1CCCN1C(=O)CNC(=O)CNC(=O)[C@H](CCC(=O)O)NC(=O)[C@@H](NC(=O)[C@H](CC(C)C)NC(=O)[C@](C)(Cc1ccc(O)cc1)NC(=O)[C@@H](CCC(=O)O)NC(=O)[C@@H](NC(=O)[C@H](Cc1ccccc1)NC(=O)[C@H](CCC(=O)O)NC(=O)C(C)(C)NC(=O)[C@H](CCC(N)=O)NC(=O)[C@H](C)NC(=O)[C@H](CCCCNC(=O)COCCOCCNC(=O)COCCOCCNC(=O)CC[C@H](NC(=O)CCCCCCCCCCC)C(=O)O)NC(=O)[C@H](CCCN)NC(=O)[C@H](CC(=O)O)NC(=O)[C@H](CC(C)C)NC(=O)[C@](C)(CC(C)C)NC(=O)[C@@H](NC(=O)[C@H](CO)NC(=O)[C@H](Cc1ccc(OC)cc1)NC(=O)[C@H](CC(=O)O)NC(=O)[C@H](CO)NC(=O)[C@@H](NC(=O)[C@](C)(Cc1ccccc1F)NC(=O)[C@@H](NC(=O)CNC(=O)[C@H](CCC(=O)O)NC(=O)C(C)(C)NC(=O)[C@@H](N)Cc1ccc(O)cc1)[C@@H](C)O)[C@@H](C)O)[C@@H](C)CC)[C@@H](C)CC)[C@@H](C)CC)C(N)=O)C(=O)O [Example 291]	0.833 nM	92.9%	> 9950 nM	> 9950 nM	100%	0.012 nM	97.6%	0.207 nM		
CCCCCCCCCCCC(=O)N[C@@H](CCC(=O)NCCOCCOCC(=O)NCCOCCOCC(=O)NCCCC[C@H](NC(=O)[C@H](CCCN)NC(=O)[C@H](CC(=O)O)NC(=O)[C@H](CC(C)C)NC(=O)[C@](C)(CC(C)C)NC(=O)[C@@H](NC(=O)[C@H](CO)NC(=O)[C@H](CCCCNC(=O)COCCOCCNC(=O)COCCOCCNC(=O)CC[C@H](NC(=O)CCCCCCCCCCC)C(=O)O)NC(=O)[C@H](CC(=O)O)NC(=O)[C@H](CO)NC(=O)[C@@H](NC(=O)[C@](C)(Cc1ccccc1F)NC(=O)[C@@H](NC(=O)CNC(=O)[C@H](CCC(=O)O)NC(=O)C(C)(C)NC(=O)[C@@H](N)Cc1ccc(O)cc1)[C@@H](C)O)[C@@H](C)O)[C@@H](C)CC)C(=O)N[C@@H](C)C(=O)N[C@@H](CCC(N)=O)C(=O)NC(C)(C)C(=O)N[C@@H](CCC(=O)O)C(=O)N[C@@H](Cc1ccccc1)C(=O)N[C@H](C(=O)N[C@H](CCC(=O)O)C(=O)N[C@@](C)(Cc1ccc(O)cc1)C(=O)N[C@@H](CC(C)C)C(=O)N[C@H](C(=O)N[C@@H](CCC(=O)O)C(=O)NCC(=O)NCC(N)=O)[C@@H](C)CC)[C@@H](C)CC)C(=O)O [Example 294] (H-Y[Aib]EGT[αMePhe(2-F)]TSDK([AEEA-AEEA-γGlu-Lauroyl])SI[αMeL]LD[Orn]K([AEEA-AEEA-γGlu-Lauroyl])AQ[Aib]EFI[dE][αMeY]LIEGG-NH2)	0.833 nM		> 9950 nM	> 9950 nM		0.00615 nM		0.0665 nM	105%	6.26 nM
CCCCCCCCCCCC(=O)N[C@@H](CCC(=O)NCCOCCOCC(=O)NCCOCCOCC(=O)NCCCC[C@H](NC(=O)[C@H](CCCN)NC(=O)[C@H](CC(=O)O)NC(=O)[C@H](CC(C)C)NC(=O)[C@](C)(CC(C)C)NC(=O)[C@@H](NC(=O)[C@H](CO)NC(=O)[C@H](Cc1ccncc1)NC(=O)[C@H](CC(=O)O)NC(=O)[C@H](CO)NC(=O)[C@@H](NC(=O)[C@](C)(Cc1ccccc1F)NC(=O)[C@@H](NC(=O)CNC(=O)[C@H](CCC(=O)O)NC(=O)C(C)(C)NC(=O)[C@@H](N)Cc1ccc(O)cc1)[C@@H](C)O)[C@@H](C)O)[C@@H](C)CC)C(=O)N[C@@H](C)C(=O)N[C@@H](CCC(N)=O)C(=O)NC(C)(C)C(=O)N[C@@H](CCCCNC(=O)COCCOCCNC(=O)COCCOCCNC(=O)CC[C@H](NC(=O)CCCCCCCCCCC)C(=O)O)C(=O)N[C@@H](Cc1ccccc1)C(=O)N[C@H](C(=O)N[C@H](CCC(=O)O)C(=O)N[C@@](C)(Cc1ccc(O)cc1)C(=O)N[C@@H](CC(C)C)C(=O)N[C@H](C(=O)N[C@@H](CCC(=O)O)C(=O)NCC(=O)NCC(N)=O)[C@@H](C)CC)[C@@H](C)CC)C(=O)O [Example 295] (H-Y[Aib]EGT[αMePhe(2-F)]TSD[4Pal]SI[αMeL]LD[Orn]K([AEEA-AEEA-γGlu-Lauroyl])AQ[Aib]K([AEEA-AEEA-γGlu-Lauroyl])FI[dE][αMeY]LIEGG-NH2; N-terminus assumed)	1.09 nM		> 9950 nM	> 9950 nM		0.0141 nM	109%	0.167 nM		10.4 nM
CCCCCCCCCCCC(=O)N[C@@H](CCC(=O)NCCOCCOCC(=O)NCCOCCOCC(=O)NCCCC[C@H](NC(=O)[C@H](CCCN)NC(=O)[C@H](CC(=O)O)NC(=O)[C@H](CC(C)C)NC(=O)[C@](C)(CC(C)C)NC(=O)[C@@H](NC(=O)[C@H](CO)NC(=O)[C@H](Cc1ccncc1)NC(=O)[C@H](CC(=O)O)NC(=O)[C@H](CO)NC(=O)[C@@H](NC(=O)[C@](C)(Cc1ccccc1F)NC(=O)[C@@H](NC(=O)CNC(=O)[C@H](CCC(=O)O)NC(=O)C(C)(C)NC(=O)[C@@H](N)Cc1ccc(O)cc1)[C@@H](C)O)[C@@H](C)O)[C@@H](C)CC)C(=O)N[C@@H](C)C(=O)N[C@@H](CCC(N)=O)C(=O)NC(C)(C)C(=O)N[C@@H](CCC(=O)O)C(=O)N[C@@H](Cc1ccccc1)C(=O)N[C@H](C(=O)N[C@H](CCC(=O)O)C(=O)N[C@@](C)(Cc1ccc(O)cc1)C(=O)N[C@@H](CC(C)C)C(=O)N[C@H](C(=O)N[C@@H](CCCCNC(=O)COCCOCCNC(=O)COCCOCCNC(=O)CC[C@H](NC(=O)CCCCCCCCCCC)C(=O)O)C(=O)NCC(=O)NCC(N)=O)[C@@H](C)CC)[C@@H](C)CC)C(=O)O [Example 296] (H-Y[Aib]EGT[αMePhe(2-F)]TSD[4Pal]SI[αMeL]LD[Orn]K([AEEA-AEEA-γGlu-Lauroyl])AQ[Aib]EFI[dE][αMeY]LIK([AEEA-AEEA-γGlu-Lauroyl])GG-NH2; N-terminus assumed)	0.823 nM	91.9%	> 9950 nM	> 9950 nM	109%	0.0121 nM	109%	0.108 nM	100%	13 nM
